Experimental data as given in article PMC9532703, “A novel small molecule RK-019 inhibits FGFR2-amplification gastric cancer cell proliferation and induces apoptosis in vitro and in vivo” (Frontiers in Pharmacology, 2022).

Experiments:
Experiment in all cases: Kinase selectivity panel
Type in all cases: biochemical
Conditions in all cases: read-out: Inhibition(%) @ 1 µM RK-019
STK32A(h) = target: T1, STK32A(h) (Homo sapiens, UniProt Q8WU08)
T1 construct: purchased Eurofins Discovery Services (KinaseProfiler)
Outline: (§1)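 Recombinant human kinase incubated with 1 µM compound; ATP-site competition binding quantified in vitro as inhibition ratio.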

SGK2(h) = target: T2, SGK2(h) (Homo sapiens, UniProt Q9HBY8)
T2 construct: purchased Eurofins Discovery Services (KinaseProfiler)
Outline: as §1

eEF-2K(h) = target: T3, eEF-2K(h) (Homo sapiens, UniProt O00418)
T3 construct: purchased Eurofins Discovery Services (KinaseProfiler)
Outline: as §1

DRAK1(h) = target: T4, DRAK1(h) (Homo sapiens, UniProt Q9UEE5)
T4 construct: purchased Eurofins Discovery Services (KinaseProfiler)
Outline: as §1

HIPK4(h) = target: T5, HIPK4(h) (Homo sapiens, UniProt Q8NE63)
T5 construct: purchased Eurofins Discovery Services (KinaseProfiler)
T5 sequence (Q8NE63 whole entry): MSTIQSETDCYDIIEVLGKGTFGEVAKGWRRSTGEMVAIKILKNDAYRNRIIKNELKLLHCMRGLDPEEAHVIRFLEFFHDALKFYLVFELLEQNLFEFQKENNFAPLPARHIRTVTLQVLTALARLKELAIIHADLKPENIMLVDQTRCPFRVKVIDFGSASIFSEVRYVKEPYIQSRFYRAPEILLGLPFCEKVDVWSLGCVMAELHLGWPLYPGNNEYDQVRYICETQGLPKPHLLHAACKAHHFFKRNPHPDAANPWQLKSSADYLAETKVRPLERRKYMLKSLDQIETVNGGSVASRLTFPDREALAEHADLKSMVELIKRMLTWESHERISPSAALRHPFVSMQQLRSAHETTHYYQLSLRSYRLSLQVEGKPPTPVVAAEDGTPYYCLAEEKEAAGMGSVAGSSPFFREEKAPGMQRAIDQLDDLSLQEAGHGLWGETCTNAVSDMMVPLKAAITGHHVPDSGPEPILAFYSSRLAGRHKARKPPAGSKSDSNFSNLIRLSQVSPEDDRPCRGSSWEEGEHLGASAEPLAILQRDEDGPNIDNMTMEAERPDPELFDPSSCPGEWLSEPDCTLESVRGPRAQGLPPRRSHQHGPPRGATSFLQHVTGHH
Outline: as §1

SBK1(h) = target: T6, SBK1(h) (Homo sapiens, UniProt Q52WX2)
T6 construct: purchased Eurofins Discovery Services (KinaseProfiler)
T6 sequence (Q52WX2 whole entry): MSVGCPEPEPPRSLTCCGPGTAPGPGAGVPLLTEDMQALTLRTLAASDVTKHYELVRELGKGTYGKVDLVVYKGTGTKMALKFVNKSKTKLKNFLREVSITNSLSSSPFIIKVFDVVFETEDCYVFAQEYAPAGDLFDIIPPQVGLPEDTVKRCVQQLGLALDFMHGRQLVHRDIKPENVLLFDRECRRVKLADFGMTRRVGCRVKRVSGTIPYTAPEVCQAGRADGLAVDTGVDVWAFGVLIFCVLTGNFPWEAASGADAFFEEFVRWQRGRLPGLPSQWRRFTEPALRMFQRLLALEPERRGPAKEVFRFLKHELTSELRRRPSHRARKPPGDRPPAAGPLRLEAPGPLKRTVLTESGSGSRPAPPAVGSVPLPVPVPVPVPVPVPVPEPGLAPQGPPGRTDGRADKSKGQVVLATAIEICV
Outline: as §1

Rsk3(h) = target: T7, Rsk3(h) (Homo sapiens, UniProt Q15349)
T7 construct: purchased Eurofins Discovery Services (KinaseProfiler)
T7 sequence (Q15349 whole entry): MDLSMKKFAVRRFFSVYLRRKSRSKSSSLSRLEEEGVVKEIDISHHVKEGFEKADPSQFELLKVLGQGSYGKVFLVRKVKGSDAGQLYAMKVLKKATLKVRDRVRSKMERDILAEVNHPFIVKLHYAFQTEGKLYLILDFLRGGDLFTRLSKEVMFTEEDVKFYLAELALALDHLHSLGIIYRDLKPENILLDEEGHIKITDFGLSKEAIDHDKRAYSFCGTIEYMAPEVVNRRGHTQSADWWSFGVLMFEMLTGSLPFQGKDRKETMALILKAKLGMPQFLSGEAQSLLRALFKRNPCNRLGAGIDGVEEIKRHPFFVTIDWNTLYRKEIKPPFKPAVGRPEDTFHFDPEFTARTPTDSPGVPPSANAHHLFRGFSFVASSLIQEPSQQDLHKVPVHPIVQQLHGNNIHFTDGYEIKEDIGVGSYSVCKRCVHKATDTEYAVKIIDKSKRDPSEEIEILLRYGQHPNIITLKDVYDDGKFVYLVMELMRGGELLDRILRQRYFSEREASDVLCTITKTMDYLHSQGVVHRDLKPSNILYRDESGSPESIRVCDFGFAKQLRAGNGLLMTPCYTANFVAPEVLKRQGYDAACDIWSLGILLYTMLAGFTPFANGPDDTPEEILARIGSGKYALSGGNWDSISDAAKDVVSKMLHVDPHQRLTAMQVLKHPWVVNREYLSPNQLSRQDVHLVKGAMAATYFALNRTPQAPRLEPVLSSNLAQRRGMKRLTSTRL
Outline: as §1

Plk1(h) = target: T8, Plk1(h) (Homo sapiens, UniProt P53350)
T8 construct: purchased Eurofins Discovery Services (KinaseProfiler)
Outline: as §1

RIPK1(h) = target: T9, RIPK1(h) (Homo sapiens, UniProt Q13546)
T9 construct: purchased Eurofins Discovery Services (KinaseProfiler)
Outline: as §1

Abl (M351T)(h) = target: T10, Abl (M351T)(h) (Homo sapiens, UniProt P00519, M351T)
T10 construct: purchased Eurofins Discovery Services (KinaseProfiler)
Outline: as §1

IKKα(h) = target: T11, IKKα(h) (Homo sapiens, UniProt O15111)
T11 construct: purchased Eurofins Discovery Services (KinaseProfiler)
Outline: as §1

WNK4(h) = target: T12, WNK4(h) (Homo sapiens, UniProt Q96J92)
T12 construct: purchased Eurofins Discovery Services (KinaseProfiler)
Outline: as §1

SRPK1(h) = target: T13, SRPK1(h) (Homo sapiens, UniProt Q96SB4)
T13 construct: purchased Eurofins Discovery Services (KinaseProfiler)
T13 sequence (Q96SB4 whole entry): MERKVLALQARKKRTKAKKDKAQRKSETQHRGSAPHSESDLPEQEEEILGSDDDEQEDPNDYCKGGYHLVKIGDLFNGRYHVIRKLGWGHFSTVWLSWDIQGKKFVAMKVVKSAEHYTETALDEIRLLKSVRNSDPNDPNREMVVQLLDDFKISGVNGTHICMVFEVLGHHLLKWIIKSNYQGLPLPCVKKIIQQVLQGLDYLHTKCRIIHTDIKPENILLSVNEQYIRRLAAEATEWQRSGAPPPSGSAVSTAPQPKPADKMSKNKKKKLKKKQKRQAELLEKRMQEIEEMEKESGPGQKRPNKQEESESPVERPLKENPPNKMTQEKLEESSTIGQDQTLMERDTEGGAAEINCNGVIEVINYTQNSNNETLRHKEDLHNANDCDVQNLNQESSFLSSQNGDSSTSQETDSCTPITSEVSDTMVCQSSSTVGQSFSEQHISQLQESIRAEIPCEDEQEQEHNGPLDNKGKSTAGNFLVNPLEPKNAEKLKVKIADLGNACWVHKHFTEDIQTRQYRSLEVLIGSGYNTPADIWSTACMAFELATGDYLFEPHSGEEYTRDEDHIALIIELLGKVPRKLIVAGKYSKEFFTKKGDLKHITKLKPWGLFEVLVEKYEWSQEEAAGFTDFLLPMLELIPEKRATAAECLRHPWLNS
Outline: as §1

MAP4K3(h) = target: T14, MAP4K3(h) (Homo sapiens, UniProt Q8IVH8)
T14 construct: purchased Eurofins Discovery Services (KinaseProfiler)
Outline: as §1

CDK2/cyclinA(h) = target: T15, CDK2/cyclinA(h) (Homo sapiens, UniProt P24941)
T15 construct: purchased Eurofins Discovery Services (KinaseProfiler)
Outline: as §1

CHK2(h) = target: T16, CHK2(h) (Homo sapiens, UniProt O96017)
T16 construct: purchased Eurofins Discovery Services (KinaseProfiler)
Outline: as §1

ACTR2(h) = target: T17, ACTR2(h) (Homo sapiens, UniProt P27037)
T17 construct: purchased Eurofins Discovery Services (KinaseProfiler)
Outline: as §1

Tie2 (h) = target: T18, Tie2 (h) (Homo sapiens, UniProt Q02763)
T18 construct: purchased Eurofins Discovery Services (KinaseProfiler)
Outline: as §1

BRK(h) = target: T19, BRK(h) (Homo sapiens, UniProt Q13882)
T19 construct: purchased Eurofins Discovery Services (KinaseProfiler)
Outline: as §1

TSSK2(h) = target: T20, TSSK2(h) (Homo sapiens, UniProt Q96PF2)
T20 construct: purchased Eurofins Discovery Services (KinaseProfiler)
T20 sequence (Q96PF2 whole entry): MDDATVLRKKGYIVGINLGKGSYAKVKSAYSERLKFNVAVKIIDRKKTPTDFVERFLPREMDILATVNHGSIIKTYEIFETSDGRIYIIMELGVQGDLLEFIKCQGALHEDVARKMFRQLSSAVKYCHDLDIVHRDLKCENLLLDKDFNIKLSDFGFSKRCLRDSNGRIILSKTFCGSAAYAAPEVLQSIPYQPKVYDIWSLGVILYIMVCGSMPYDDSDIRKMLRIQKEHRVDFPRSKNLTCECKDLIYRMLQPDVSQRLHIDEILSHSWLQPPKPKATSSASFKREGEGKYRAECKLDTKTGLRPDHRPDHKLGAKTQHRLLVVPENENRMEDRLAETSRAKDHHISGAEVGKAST
Outline: as §1

IR(h) = target: T21, IR(h) (Homo sapiens, UniProt P06213)
T21 construct: purchased Eurofins Discovery Services (KinaseProfiler)
Outline: as §1

Tie2(R849W)(h) = target: T22, Tie2(R849W)(h) (Homo sapiens, UniProt Q02763, R849W)
T22 construct: purchased Eurofins Discovery Services (KinaseProfiler)
Outline: as §1

TAO2(h) = target: T23, TAO2(h) (Homo sapiens, UniProt Q9UL54)
T23 construct: purchased Eurofins Discovery Services (KinaseProfiler)
Outline: as §1

Met(h) = target: T24, Met(h) (Homo sapiens, UniProt P08581)
T24 construct: purchased Eurofins Discovery Services (KinaseProfiler)
Outline: as §1

Mnk2(h) = target: T25, Mnk2(h) (Homo sapiens, UniProt Q9HBH9)
T25 construct: purchased Eurofins Discovery Services (KinaseProfiler)
T25 sequence (Q9HBH9 whole entry): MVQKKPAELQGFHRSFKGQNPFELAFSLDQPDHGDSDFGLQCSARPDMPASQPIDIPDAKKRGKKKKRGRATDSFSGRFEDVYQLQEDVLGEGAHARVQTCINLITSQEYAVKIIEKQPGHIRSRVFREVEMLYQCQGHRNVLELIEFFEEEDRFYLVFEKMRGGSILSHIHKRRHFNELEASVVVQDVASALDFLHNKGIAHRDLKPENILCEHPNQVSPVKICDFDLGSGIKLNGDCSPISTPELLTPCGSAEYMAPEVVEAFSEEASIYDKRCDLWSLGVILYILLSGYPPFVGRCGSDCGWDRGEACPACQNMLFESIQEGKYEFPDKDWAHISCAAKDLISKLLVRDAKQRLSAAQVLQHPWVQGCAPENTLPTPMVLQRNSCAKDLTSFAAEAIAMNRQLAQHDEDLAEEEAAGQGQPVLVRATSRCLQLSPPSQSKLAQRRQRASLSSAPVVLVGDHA
Outline: as §1

CDK5/p35(h) = target: T26, CDK5/p35(h) (Homo sapiens, UniProt Q00535)
T26 construct: purchased Eurofins Discovery Services (KinaseProfiler)
Outline: as §1

CK1ε(h) = target: T27, CK1ε(h) (Homo sapiens, UniProt P49674)
T27 construct: purchased Eurofins Discovery Services (KinaseProfiler)
T27 sequence (P49674 whole entry): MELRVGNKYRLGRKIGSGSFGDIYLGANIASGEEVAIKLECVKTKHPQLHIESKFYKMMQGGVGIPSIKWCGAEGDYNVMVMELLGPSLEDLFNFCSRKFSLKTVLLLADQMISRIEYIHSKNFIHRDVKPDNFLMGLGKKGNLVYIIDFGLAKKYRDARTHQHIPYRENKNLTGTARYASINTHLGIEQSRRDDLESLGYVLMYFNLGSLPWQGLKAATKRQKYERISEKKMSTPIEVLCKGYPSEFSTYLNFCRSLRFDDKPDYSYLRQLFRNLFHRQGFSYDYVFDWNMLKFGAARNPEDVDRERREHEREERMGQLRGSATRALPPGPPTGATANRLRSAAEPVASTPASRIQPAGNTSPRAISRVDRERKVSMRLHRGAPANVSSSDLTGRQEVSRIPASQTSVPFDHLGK
Outline: as §1

[1] = target: T28, PI3 Kinase (p110d/p85a)(m) (Mus musculus, UniProt O35904)
T28 construct: purchased Eurofins Discovery Services (KinaseProfiler)

EGFR(h) = target: T29, EGFR(h) (Homo sapiens, UniProt P00533)
T29 construct: purchased Eurofins Discovery Services (KinaseProfiler)
Outline: as §1

EphA8(h) = target: T30, EphA8(h) (Homo sapiens, UniProt P29322)
T30 construct: purchased Eurofins Discovery Services (KinaseProfiler)
Outline: as §1

CDK16/cyclinY(h) = target: T31, CDK16/cyclinY(h) (Homo sapiens, UniProt Q00536)
T31 construct: purchased Eurofins Discovery Services (KinaseProfiler)
Outline: as §1

Met(D1246N)(h) = target: T32, Met(D1246N)(h) (Homo sapiens, UniProt P08581, D1228N)
T32 construct: purchased Eurofins Discovery Services (KinaseProfiler)
Outline: as §1

ErbB2(h) = target: T33, ErbB2(h) (Homo sapiens, UniProt P04626)
T33 construct: purchased Eurofins Discovery Services (KinaseProfiler)
Outline: as §1

FGFR2(N549H)(h) = target: T34, FGFR2(N549H)(h) (Homo sapiens, UniProt P21802, N549H)
T34 construct: purchased Eurofins Discovery Services (KinaseProfiler)
T34 sequence (P21802 22-821 N549H): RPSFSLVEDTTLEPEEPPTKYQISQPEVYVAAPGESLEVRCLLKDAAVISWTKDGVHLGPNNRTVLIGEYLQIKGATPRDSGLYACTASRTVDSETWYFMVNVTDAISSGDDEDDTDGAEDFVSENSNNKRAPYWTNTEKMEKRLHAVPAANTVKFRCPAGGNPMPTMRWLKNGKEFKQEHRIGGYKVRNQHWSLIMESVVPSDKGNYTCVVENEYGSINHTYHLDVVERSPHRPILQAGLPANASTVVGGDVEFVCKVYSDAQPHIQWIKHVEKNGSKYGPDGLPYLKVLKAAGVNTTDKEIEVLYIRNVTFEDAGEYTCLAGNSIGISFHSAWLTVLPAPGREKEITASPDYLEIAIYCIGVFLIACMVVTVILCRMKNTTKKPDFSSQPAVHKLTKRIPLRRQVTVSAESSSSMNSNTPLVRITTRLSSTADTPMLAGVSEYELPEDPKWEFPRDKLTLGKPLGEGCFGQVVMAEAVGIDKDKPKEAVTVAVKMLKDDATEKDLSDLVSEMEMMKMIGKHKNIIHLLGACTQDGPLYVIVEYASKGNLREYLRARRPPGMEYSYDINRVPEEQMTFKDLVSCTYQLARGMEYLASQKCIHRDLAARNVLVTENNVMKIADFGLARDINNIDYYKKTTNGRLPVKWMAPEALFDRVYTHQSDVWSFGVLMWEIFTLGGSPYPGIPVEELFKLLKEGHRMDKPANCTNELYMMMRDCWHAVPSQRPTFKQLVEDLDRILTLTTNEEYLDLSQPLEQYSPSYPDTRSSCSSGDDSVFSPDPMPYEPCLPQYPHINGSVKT
Outline: as §1

CaMKIß(h) = target: T35, CaMKIß(h) (Homo sapiens, UniProt Q6P2M8)
T35 construct: purchased Eurofins Discovery Services (KinaseProfiler)
T35 sequence (Q6P2M8 whole entry): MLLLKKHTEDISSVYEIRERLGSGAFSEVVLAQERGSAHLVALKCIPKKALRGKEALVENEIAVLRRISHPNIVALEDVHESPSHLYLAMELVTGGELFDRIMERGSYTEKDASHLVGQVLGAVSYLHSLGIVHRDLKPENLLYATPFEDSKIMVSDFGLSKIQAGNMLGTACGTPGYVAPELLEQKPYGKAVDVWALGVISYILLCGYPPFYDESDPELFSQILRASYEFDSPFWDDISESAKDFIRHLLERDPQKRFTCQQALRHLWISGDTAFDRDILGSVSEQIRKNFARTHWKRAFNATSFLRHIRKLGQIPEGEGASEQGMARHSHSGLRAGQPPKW
Outline: as §1

SGK3(h) = target: T36, SGK3(h) (Homo sapiens, UniProt Q96BR1)
T36 construct: purchased Eurofins Discovery Services (KinaseProfiler)
Outline: as §1

STK25(h) = target: T37, STK25(h) (Homo sapiens, UniProt O00506)
T37 construct: purchased Eurofins Discovery Services (KinaseProfiler)
Outline: as §1

`COc1cc(OC)cc(N(CCN[C@H](C)CO)c2ccc3ncc(-c4cnn(C)c4)c(=O)n3c2)c1` [RK-019, (R)-7-((3,5-dimethoxyphenyl) (2-((1-hydroxypropan-2-yl)amino)ethyl)amino)-3-(1-methyl-1H-pyrazol-4-yl)-4H-pyrido [1,2-a]pyrimidin-4-one] gave an activity at 1 µM (STK32A(h)) of 86%, an activity at 1 µM (SGK2(h)) of 79% and an activity at 1 µM (eEF-2K(h)) of 97%. For the same compound, the activity at 1 µM (DRAK1(h)) was 95%, the activity at 1 µM (HIPK4(h)) was 100% and the activity at 1 µM (SBK1(h)) was 96%. For the same compound, the activity at 1 µM (Rsk3(h)) was 100%, the activity at 1 µM (Plk1(h)) was 117% and the activity at 1 µM (RIPK1(h)) was 85%. It also gave an activity at 1 µM (Abl (M351T)(h)) of 34%, an activity at 1 µM (IKKα(h)) of 100% and an activity at 1 µM (WNK4(h)) of 86%. The activity at 1 µM (SRPK1(h)) was 112%, the activity at 1 µM (MAP4K3(h)) was 132% and the activity at 1 µM (CDK2/cyclinA(h)) was 115%. It also gave an activity at 1 µM (CHK2(h)) of 96%, an activity at 1 µM (ACTR2(h)) of 85% and an activity at 1 µM (Tie2 (h)) of 105%. The activity at 1 µM (BRK(h)) was 89%, the activity at 1 µM (TSSK2(h)) was 91% and the activity at 1 µM (IR(h)) was 118%. It also gave an activity at 1 µM (Tie2(R849W)(h)) of 82%, an activity at 1 µM (TAO2(h)) of 95% and an activity at 1 µM (Met(h)) of 97%. The activity at 1 µM (Mnk2(h)) was 108%, the activity at 1 µM (CDK5/p35(h)) was 106% and the activity at 1 µM (CK1ε(h)) was 99%. The activity at 1 µM [1] was 98%, the activity at 1 µM (EGFR(h)) was 119% and the activity at 1 µM (EphA8(h)) was 59%. For the same compound, the activity at 1 µM (CDK16/cyclinY(h)) was 108%, the activity at 1 µM (Met(D1246N)(h)) was 89% and the activity at 1 µM (ErbB2(h)) was 94%. For the same compound, the activity at 1 µM (FGFR2(N549H)(h)) was -1%, the activity at 1 µM (CaMKIß(h)) was 97% and the activity at 1 µM (SGK3(h)) was 97%. It also gave an activity at 1 µM (STK25(h)) of 66%.
